According to patent US20240174625A1, “COMPOSITIONS AND METHODS FOR TREATING TAUOPATHIES” (The Regents of the University of California, priority 2021, published 2024):

Tests used:
NPEPPS = target: T1, NPEPPS (Homo sapiens, UniProt P55786); assay: Cell-based NPEPPS activity assay (Q-AMC fluorescence); conditions: log10 transformed; EC50 = concentration that elevates 50% NPEPPS activity (150% of DMSO baseline); HEK293T cells
T1 construct: endogenous in cells; host or cells: HEK293T
Description: HEK293T cells (AATC) were maintained in a complete media containing DMEM (Gibco 11995-065) in the presence of 10% fetal bovine serum (FBS, Gibco 10082147), […] penicillin and 50 μg/ml streptomycin (Gibco 15140163) at 37° C. with 5% CO2. NPEPPS activity assay was conducted in a fresh-prepared minimal medium containing essential amino acids, vitamin, AlbuMax (Invitrogen 11021-029) in 1×HBS buffer. Black wall, clear bottom 384-well assay plates (Greiner EK-30092) were coated with poly-L-ornithine (0.1 mg/ml, Sigma P3655) overnight and washed once with 1×PBS. 15 μl minimal medium was then added to each well. 250 nL of compounds dissolved in OmniSolve methylsulfoxide (dimethyl sulfoxide, DMSO, Sigma MX1456P) were pinned to each well via Biomek FX^P Liquid Handling Automation (Beckman Coulter) from compound source plates, i.e., either pre-made compound libraries or JMM compounds (20-step, 2-fold dilution) dissolved in OmniSolve DMSO prepared via Biomek automation in 384-well clear V-bottom polypropylene microplates (ThermoScientific 50-823-639). Cells were harvested, resuspended in minimal medium, and seeded at 16,500 cells/15 μl/well in the 384-well assay plates. 24 hrs later, 30 μl 200 μM H-Gln-AMC hydrobromide salt (Q-AMC, Bachem #I-1175) in 1×HBS containing 0.1% DMSO was added into each well. The fluorescent signal at excitation/emission wavelengths of 360/460 nm was measured immediately upon Q-AMC addition and 3 hrs post-Q-AMC. The change in fluorescence is measured as a readout of NPEPPS activity.
To identify small molecules that either increase NPEPPS levels or NPEPPS activity, a cell-based NPEPPS activity assay amenable to high-throughput screening (HTS) by adapting a fluorescent peptidase activity assay^2 was developed. Since NPEPPS is one of the only aminopeptidases capable of cleaving glutamine-peptide bonds^3 and the major aminopeptidase responsible for degradation of poly-glutamine sequences in the brain^4, a fluorogenic compound, glutamine-7-amino-4-methylcoumarin (Q-AMC), was selected as a substrate to measure NPEPPS activity. The peptide bond of Q-AMC is hydrolyzed by NPEPPS to release glutamine and a fluorescent product, 7-amino-4-methylcoumarin (AMC), when Q-AMC is added directly to the cell culture media. This change in fluorescence is measured as a readout of aminopeptidase activity (FIG. 2A). Overexpression of NPEPPS in HEK293T cells results in a significant increase in fluorescence, whereas knock-down or chemical inhibition of NPEPPS decrease fluorescence change (FIG. 2B-D), validating that the changes in fluorescence observed in the Q-AMC-based assay directly correlate with changes in NPEPPS activity. A high-throughput (HTS) screen (201,845 compounds) was conducted at the UCLA MSSR core (FIG. 2E). Follow-up assays and chemical clustering identified three series of compounds with distinct chemical clusters (FIG. 2F).
(§1) To investigate the effects of JMM compounds that enhance NPEPPS activity and assess their cellular toxicity, 139 compounds in the JMM series (i.e., JMM001-JMM139) were tested in dose responses (20-step, 2-fold dilution) using NPEPPS activity and viability assays in HEK293T cells. 76 compounds harboring different modifications produce concentration-dependent enhancement on NPEPPS activity compared to DMSO control (FIG. 4). […] A therapeutic index (TI, a ratio of IC50 over EC50) is used to evaluate the relative safety profiles of the compounds. […] 16 JMM compounds show both improved potency and reduced toxicity (EC50<10 μM and TI>10, Table 1).

HEK293T cells = assay: Cell viability assay (CellTiter Glo); format: cell-based, human; conditions: for IC50: Homo sapiens, HEK-293T, log10 transformed, IC50 = concentration that suppresses 50% cell viability, HEK293T cells; for Therapeutic index: ratio of IC50 (cell viability) over EC50 (NPEPPS activity)
Description: HEK293T cells (AATC) were maintained in complete media and cell viability assay was conducted in a fresh-prepared minimal medium containing essential amino acids, vitamin, AlbuMax (Invitrogen 11021-029) in 1×HBS buffer. White 384-well assay plates (Greiner EK-30080) were coated with poly-L-ornithine (0.1 mg/ml) overnight and washed once with 1×PBS. 15 μl minimal medium was then added to each well. 250 nl of compounds dissolved in OmniSolve DMSO were pinned to each well via Biomek FX^P Liquid Handling Automation from compound source plates. Cells were harvested, resuspended in minimal medium, and seeded at 16,500 cells/15 μl/well in the 384-well assay plates. 24 hrs later, 25 μl/well CellTiter Glo reagent (Promega G7572) was added into each well, and luminescence (0.5 second integration time) was acquired following manufacture's protocol. Luminescence count normalized to DMSO control is used as a readout of cell viability.
as §1

T1 sequence (P55786 whole entry): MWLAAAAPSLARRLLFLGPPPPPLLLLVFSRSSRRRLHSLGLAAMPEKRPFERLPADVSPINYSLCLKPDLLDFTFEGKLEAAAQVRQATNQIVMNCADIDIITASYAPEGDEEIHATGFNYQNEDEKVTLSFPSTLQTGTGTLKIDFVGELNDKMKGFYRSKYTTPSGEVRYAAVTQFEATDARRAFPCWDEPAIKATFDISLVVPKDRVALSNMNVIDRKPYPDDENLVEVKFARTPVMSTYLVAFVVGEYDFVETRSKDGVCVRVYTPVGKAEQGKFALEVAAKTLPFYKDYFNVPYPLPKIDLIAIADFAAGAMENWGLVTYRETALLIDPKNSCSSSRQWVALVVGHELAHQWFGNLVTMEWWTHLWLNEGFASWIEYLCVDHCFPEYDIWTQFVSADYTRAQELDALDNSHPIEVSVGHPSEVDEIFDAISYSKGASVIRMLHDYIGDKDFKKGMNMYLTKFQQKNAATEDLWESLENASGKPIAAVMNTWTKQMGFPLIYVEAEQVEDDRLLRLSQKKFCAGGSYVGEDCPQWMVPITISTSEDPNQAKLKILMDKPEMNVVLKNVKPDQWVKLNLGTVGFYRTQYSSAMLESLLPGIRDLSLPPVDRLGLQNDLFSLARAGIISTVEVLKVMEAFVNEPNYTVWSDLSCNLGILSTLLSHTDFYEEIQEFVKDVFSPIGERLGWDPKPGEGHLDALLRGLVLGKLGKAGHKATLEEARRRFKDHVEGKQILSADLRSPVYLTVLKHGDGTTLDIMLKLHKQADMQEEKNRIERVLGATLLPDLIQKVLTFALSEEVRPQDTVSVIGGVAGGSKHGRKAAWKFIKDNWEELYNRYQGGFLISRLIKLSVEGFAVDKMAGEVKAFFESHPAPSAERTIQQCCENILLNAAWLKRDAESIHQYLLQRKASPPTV

| Compound | EC50 (NPEPPS) [µM] | IC50 (HEK293T cells) [µM] | Therapeutic index (HEK293T cells) |
| --- | --- | --- | --- |
| COc1ccc(CNc2nsc3ccccc23)cc1 [JMM003] | 257 | 263 | 1.03 |
| c1ccc2c(NCc3ccc4c(c3)OCCO4)nsc2c1 [JMM017] | 288 | 204 | 0.71 |
| FC(F)(F)c1ccc(CNc2nsc3cccnc23)cc1 [JMM060] | 53.7 | 102 | 1.88 |
| FC(F)(F)Oc1ccccc1CNc1nsc2ccccc12 [JMM055] | 52.5 | 126 | 2.43 |
| COc1ccc(C(=O)Nc2nsc3ccccc23)cc1 [JMM004] | 407 | 372 | 0.90 |
| Fc1ccccc1CNc1nsc2ccccc12 [JMM073] | 138 | 316 | 2.30 |
| COC(=O)c1ccc(CNc2nsc3ccccc23)cc1 [JMM024] | 158 | 437 | 2.76 |
| Fc1cccc2c(NCc3ccccc3C(F)(F)F)nsc12 [JMM056] | 34.7 | 81.3 | 2.34 |
| COc1ccc(CN(C)c2nsc3ccccc23)cc1OC [JMM068] | 58.9 | 132 | 2.22 |
| Fc1ccc(CNc2nsc3ccccc23)cc1 [JMM011] | 316 | 389 | 1.25 |
| COc1ccc(CNc2nsc3cccc(OC)c23)cc1OC [JMM026] | 41.7 | 129 | 3.05 |
| Brc1ccc(CNc2nsc3ccccc23)cc1 [JMM016] | 126 | 47.9 | 0.38 |
| c1ccc2c(NCc3ccncc3)nsc2c1 [JMM012] | 148 | 126 | 0.86 |
| Fc1ccc(NCc2ccc(C(F)(F)F)cc2)nc1 [JMM045] | 53.7 | 186 | 3.49 |
| Clc1ccc(CNc2nsc3ccccc23)cc1Cl [JMM021] | 32.4 | 58.9 | 1.80 |
| FC(F)(F)c1ccc(CNc2nsc3ccc(Cl)cc23)cc1 [JMM138, 5-Chloro-N-(4-(trifluoromethyl)benzyl)benzo[d]isothiazol-3-amine] | 22.9 | 25.1 | 1.10 |
| COc1ccc(CNc2noc3ccccc23)cc1OC [JMM040] | 251 | 251 | 1.00 |
| Cc1ccccc1COc1ccc(CNc2nsc3ccc(OCc4ccccc4)cc23)cc1 [JMM114, 5-(Benzyloxy)-N-(4-((2-methylbenzyl)oxy)benzyl)benzo[d]isothiazol-3-amine] | 26.3 | 63.1 | 2.42 |
| COc1ccc(CNc2n[nH]c3ccccc23)cc1OC [JMM047] | 60.3 | 170 | 2.85 |
| COc1ccc2snc(NCc3ccc(OCc4ccccc4)cc3)c2c1 [JMM094] | 37.2 | 178 | 4.80 |

Compounds with a lower EC50 (NPEPPS), results first:

| EC50 (NPEPPS) [µM] | Compound | IC50 (HEK293T cells) [µM] | Therapeutic index (HEK293T cells) |
| --- | --- | --- | --- |
| 3.55 | CN(Cc1ccccc1C(F)(F)F)c1nsc2ccccc12 [JMM079] | 69.2 | 19.15 |
| 4.57 | CN(Cc1ccc(C(F)(F)F)cc1)c1nsc2cnccc12 [JMM084] | 23.4 | 5.13 |
| 4.07 | CN(Cc1ccc(OCc2ccc(Cl)c(Cl)c2)cc1)c1nsc2ccc(OCc3ccccc3)cc12 [JMM109, 5-(Benzyloxy)-N-(4-((3,4-dichlorobenzyl)oxy)benzyl)-N-methylbenzo[d]isothiazol-3-amine] | 60.3 | 14.99 |
| 7.08 | FC(F)(F)c1ccc(C(Nc2nsc3ccccc23)c2ccc(C(F)(F)F)cc2)cc1 [JMM051] | 14.1 | 2.03 |
| 5.75 | COc1ccc(CNc2nsc3c(F)cccc23)cc1OC [JMM042] | 58.9 | 10.41 |
| 9.77 | Clc1ccc(C(Nc2nsc3ccccc23)c2ccc(Cl)cc2)cc1 [JMM076] | 20 | 2.03 |
| 10.2 | Fc1ccc(COc2ccc(CNc3nsc4ccc(OCc5ccccc5)cc34)cc2)c(F)c1 [JMM111, 5-(Benzyloxy)-N-(4-((2,4-difluorobenzyl)oxy)benzyl)benzo[d]isothiazol-3-amine] | 27.5 | 2.74 |
| 10 | COc1ccc(C(Nc2nsc3ccccc23)c2ccc(OC)cc2)cc1 [JMM053] | 3390 | 335.12 |
| 1.05 | Clc1ccc(COc2ccc(CNc3nsc4ccc(OCc5ccccc5)cc34)cc2)cc1Cl [JMM103] | 1620 | 1543.93 |
| 4.47 | c1ccc(COc2ccc3snc(NCc4ccc(OCC5CCC5)cc4)c3c2)cc1 [JMM128, 5-(Benzyloxy)-N-(4-(cyclobutylmethoxy)benzyl)benzo[d]isothiazol-3-amine] | 9.55 | 2.12 |
| 6.46 | FC(F)(F)c1ccc(CNc2nsc3ccc(OCc4ccccc4)cc23)cc1 [JMM066] | 174 | 27.03 |
| 13.5 | FC(F)(F)c1ccc(CN(Cc2ccccc2)c2nsc3ccccc23)cc1 [JMM072] | 155 | 11.52 |
| 18.6 | CN(Cc1ccc(SC(F)(F)F)cc1)c1nsc2ccc(OCc3ccccc3)cc12 [JMM098] | 107 | 5.68 |
| 7.08 | c1ccc(C(Nc2nsc3ccccc23)c2ccccc2)cc1 [JMM029] | 324 | 45.28 |
| 2.63 | CN(Cc1ccc(SC(F)(F)F)cc1)c1nsc2ccccc12 [JMM082] | 75.9 | 29.32 |
| 15.8 | FC(F)(F)c1ccc(COc2ccc(CNc3nsc4ccc(OCc5ccccc5)cc34)cc2)cc1 [JMM121, 5-(Benzyloxy)-N-(4-((4-(trifluoromethyl)benzyl)oxy)benzyl)benzo[d]isothiazol-3-amine] | 295 | 18.30 |
| 10.5 | FC(F)(F)c1ccc(CNc2nsc3ccccc23)c(C(F)(F)F)c1 [JMM061] | 72.4 | 6.85 |
| 17.8 | COc1ccc(CN(Cc2ccc(C(F)(F)F)cc2)c2nsc3ccccc23)cc1OC [JMM069] | 1510 | 84.99 |
| 5.5 | Clc1ccc(COc2ccc(CNc3nsc4ccc(OCc5ccccc5)cc34)cc2)cc1 [JMM112, 5-(Benzyloxy)-N-(4-((4-chlorobenzyl)oxy)benzyl)benzo[d]isothiazol-3-amine] | 23.4 | 4.29 |
